The text below walks through data of patent US9718836B2 (priority 2014, dated 2017).

Where “and” joins values, the source holds several entries; their conditions need not be identical. Identical values can stand only once.

Experiment [1] concerns antibodies in the antisera. It is filed as binding, Balb/c mice.
The test system of experiment [2] is antibodies in the antisera. Type of experiment: binding, Balb/c mice. The source holds these as a separate data set.

Turning to aflatoxin G2, in experiment [1], the Absorbance was 1.03 and 1.04 and 1.05 and 1.01 and 1.09 and 1.02 and 1.10.
For the molecule aflatoxin G1, the Absorbance in experiment [1] was 1.07 and 1.05 and 1.01 and 0.98 and 1.04 and 1.09 and 1.11.
In the case of aflatoxin B2, the Absorbance in experiment [1] was 1.08 and 1.06 and 0.99 and 1.07 and 1.01 and 1.02 and 1.04.
As for `COc1cc2c(c3oc4cccc(O)c4c(=O)c13)[C@@H]1C=CO[C@@H]1O2` [aflatoxin biosynthetic precursor ST, Sterigmatocystin], the “IC50 value of the antibody for the aflatoxin biosynthetic precursor ST” value in experiment [2] stood at 0.41 ng/mL.
